Paper PMC10138389, “Study of Lipophilicity and ADME Properties of 1,9-Diazaphenothiazines with Anticancer Action” (International Journal of Molecular Sciences, 2023)

Experiments:
[1] = cited from earlier work; for logPTLC, 1,6-Diaza: 1,6-diazaphenothiazines; for logPTLC, 1,8-Diaza: 1,8-diazaphenothiazines; for logPTLC, 2,7-Diaza: 2,7-diazaphenothiazines; for logPTLC, 3,6-Diaza: 3,6-diazaphenothiazines
[2] = experimental lipophilicity by RP-TLC (RM0, logPTLC); format: physicochemical; settings: for logPTLC, 1,9-Diaza: 1,9-diazaphenothiazines, comparison table; for −b (slope of RM = RM0 + bC) / RM0 (relative lipophilicity parameter): RP-TLC; for −b (slope of RM = RM0 + bC): RP 18F254S, acetone/TRIS buffer pH 7.4; for RM0 (relative lipophilicity parameter): extrapolation to zero acetone concentration, TRIS buffer pH 7.4; for chromatographic logP: pH 7.4, RM0 converted with the calibration curve of standards I–V
Experimental: In the next stage, experimental measurements of the lipophilicity coefficient were performed with the use of reversed-phase thin-layer chromatography RP-TLC.
The experimental RP-TLC method provided the RM retention parameter (calculated from RF value measurements) using the following equation:RM = log (1/RF − 1)(1)
Then a calibration curve was created using the same measuring conditions. […] The calibration curve was used to convert the values of the relative lipophilicity parameter RM0 of the tested hybrids into the value of the absolute lipophilicity parameter logPTLC.
The equation of the standard curve with which it was possible to convert the relative lipophilicity parameter RM0 into the absolute parameter logPTLC is presented in Figure 2.
The RP-TLC method was used to determine the experimental lipophilicity according to the literature. Modified silica gel RP 18F254S (Merck) was used as the stationary phase and a mixture of tris(hydroxymethyl)aminomethane (TRIS) (0.2 M, buffer pH = 7.4) with acetone as the mobile phase with the range of concentrations from 40 to 70% (v/v) in 5% increments. […] Spots were observed under UV light at λ = 254 nm. Each measurement was performed in triplicate and then the RF values were calculated.

glioblastoma SNB-19 = tested on: glioblastoma SNB-19; design: method as in PMID 31307242, PMID 33807874; settings: cited from earlier work
melanoma C-32 = tested on: melanoma C-32; design: method as in PMID 31307242, PMID 33807874; settings: melanoma C-32 cell line; cited from earlier work
breast cancer MDA-MB-231 = tested on: breast cancer MDA-MB-231; design: method as in PMID 31307242, PMID 33807874; settings: cited from earlier work
SNB-19 cells = tested on: SNB-19 cells; design: method as in PMID 33807874; settings: Annexin V; cited from earlier work
[3] = tested on: H3, TP53, CDKN1A, BCL-2, and BAX genes; design: method as in PMID 33807874; settings: RT-QPCR, tested cell lines; cited from earlier work
[4] = standards; cited from earlier work

Row | −b (slope of RM = RM0 + bC) [2] | RM0 (relative lipophilicity parameter) [2] | chromatographic logP [2] | Structure (SMILES) | also measured
1 |  |  |  | c1cnc2c(c1)Nc1ncccc1S2 [1,6-Diaza A, 10H-1,6-diazaphenothiazine] | logPTLC, 1,6-Diaza [1]: 2.316
2 |  |  |  | C=CCN1c2cccnc2Sc2cccnc21 [1,6-Diaza B] | logPTLC, 1,6-Diaza [1]: 3.008
3 |  |  |  | C#CCN1c2cccnc2Sc2cccnc21 [1,6-Diaza C] | logPTLC, 1,6-Diaza [1]: 1.574
4 |  |  |  | CN(C)CCCN1c2cccnc2Sc2cccnc21 [1,6-Diaza D] | logPTLC, 1,6-Diaza [1]: 1.156
5 |  |  |  | c1cnc2c(c1)Sc1ccncc1N2 [1,8-Diaza A] | logPTLC, 1,8-Diaza [1]: 1.759
6 |  |  |  | C=CCN1c2cnccc2Sc2cccnc21 [1,8-Diaza B] | logPTLC, 1,8-Diaza [1]: 2.313
7 |  |  |  | C#CCN1c2cnccc2Sc2cccnc21 [1,8-Diaza C] | logPTLC, 1,8-Diaza [1]: 2.186
8 |  |  |  | CN(C)CCCN1c2cnccc2Sc2cccnc21 [1,8-Diaza D] | logPTLC, 1,8-Diaza [1]: 1.832
9 |  |  |  | c1cc2c(cn1)Nc1ccncc1S2 [2,7-Diaza A] | logPTLC, 2,7-Diaza [1]: 1.540
10 |  |  |  | C=CCN1c2ccncc2Sc2ccncc21 [2,7-Diaza B] | logPTLC, 2,7-Diaza [1]: 1.940
11 |  |  |  | C#CCN1c2ccncc2Sc2ccncc21 [2,7-Diaza C] | logPTLC, 2,7-Diaza [1]: 1.654
12 |  |  |  | CN(C)CCCN1c2ccncc2Sc2ccncc21 [2,7-Diaza D] | logPTLC, 2,7-Diaza [1]: 1.940
13 |  |  |  | c1cnc2c(c1)Nc1ccncc1S2 [3,6-Diaza A, 10H-3,6-diazaphenothiazine] | logPTLC, 3,6-Diaza [1]: 0.952
14 |  |  |  | C=CCN1c2ccncc2Sc2ncccc21 [3,6-Diaza B] | logPTLC, 3,6-Diaza [1]: 1.329
15 |  |  |  | C#CCN1c2ccncc2Sc2ncccc21 [3,6-Diaza C] | logPTLC, 3,6-Diaza [1]: 1.342
16 |  |  |  | CN(C)CCCN1c2ccncc2Sc2ncccc21 [3,6-Diaza D] | logPTLC, 3,6-Diaza [1]: 1.404
17 | 0.0205 | 1.1970 | 1.48 | c1cnc2c(c1)Sc1cccnc1N2 [Compound 1, 10H-1,9-diazaphenothiazine] | logPTLC, 1,9-Diaza [2]: 1.476; anticancer activity against other lines (glioblastoma SNB-19): inactive; IC50 (melanoma C-32): 3.83 µM; anticancer activity against other lines (breast cancer MDA-MB-231): inactive
18 | 0.0192 | 1.3850 | 1.66 | CN1c2ncccc2Sc2cccnc21 [Compound 2] | 
19 | 0.0278 | 1.4052 | 1.68 | C=CCN1c2ncccc2Sc2cccnc21 [Compound 3] | logPTLC, 1,9-Diaza [2]: 1.682
20 | 0.0195 | 1.4720 | 1.75 | C#CCN1c2ncccc2Sc2cccnc21 [Compound 4] | logPTLC, 1,9-Diaza [2]: 1.747; early and late cell apoptosis populations (SNB-19 cells): slight increase; expression of the CDKN1A gene [3]: enhanced; expression of the H3 gene [3]: reduced; expression of the TP53 gene [3]: reduced
21 | 0.0205 | 1.7877 | 2.06 | c1ccc(CN2c3ncccc3Sc3cccnc32)cc1 [Compound 5, 10-benzyl-1,9-diazaphenothiazine] | 
22 | 0.0170 | 1.8096 | 2.08 | CN(C)CCCN1c2ncccc2Sc2cccnc21 [Compound 6] | logPTLC, 1,9-Diaza [2]: 2.080
23 | 0.0180 | 1.7934 | 2.06 | CCN(CC)CCN1c2ncccc2Sc2cccnc21 [Compound 7] | early and late cell apoptosis populations (SNB-19 cells): slight increase; expression of the CDKN1A gene [3]: enhanced; expression of the H3 gene [3]: reduced; expression of the TP53 gene [3]: reduced
24 | 0.0228 | 1.8961 | 2.17 | CC(CN(C)C)CN1c2ncccc2Sc2cccnc21 (stereo not shown) [Compound 8] | 
25 | 0.0123 | 1.9434 | 2.21 | c1cnc2c(c1)Sc1cccnc1N2CCN1CCCC1 [Compound 9] | 
26 | 0.0214 | 1.9781 | 2.25 | c1cnc2c(c1)Sc1cccnc1N2CCN1CCCCC1 [Compound 10] | 
27 | 0.0211 | 1.9988 | 2.27 | CN1CCCCC1CCN1c2ncccc2Sc2cccnc21 (stereo not shown) [Compound 11] | 
28 | 0.018 | 1.011 |  | CC(=O)Nc1ccccc1 [I, acetanilide, reference compound] | log P TLC (logPlit.) [4]: 1.21 [22]
29 | 0.019 |  |  | CC(=O)c1ccccc1 [II, acetophenone, reference compound] | 
30 |  |  |  | N.N.[Cl][Pt][Cl] [cisplatin, reference compound] | IC50 (melanoma C-32): 13.2 µM

Row | Structure (SMILES) | −b (slope of RM = RM0 + bC) [2] | RM0 (relative lipophilicity parameter) [2] | chromatographic logP [2] | also measured
31 | CC(=O)c1ccc(Br)cc1 [III, 4-bromoacetophenone, reference compound] | 0.033 | 2.281 |  | log P TLC (logPlit.) [4]: 2.43 [23]
32 | O=C(c1ccccc1)c1ccccc1 [IV, benzophenone, reference compound] | 0.034 |  |  | 
33 | c1ccc2cc3ccccc3cc2c1 [V, anthracene, reference compound] | 0.044 | 3.588 |  | log P TLC (logPlit.) [4]: 5.53 [22]
